Key:
Assay in all cases: relative viability (nuclei count vs DMSO), 5 days (fraction); higher = more cells survive
Serdemetan + Crizotinib = compound: c1ccc2c(CCNc3ccc(Nc4ccncc4)cc3)c[nH]c2c1 [Serdemetan] + C[C@@H](Oc1cc(-c2cnn(C3CCNCC3)c2)cnc1N)c1c(Cl)ccc(F)c1Cl [Crizotinib] (partner 1 µM)
Summary of the method: (§1)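 For relative viability, nuclei counts in treated wells were divided by those in vehicle wells. Lung cancer cell lines had been pin-tool dosed in 1536-well plates the day after seeding and cultured for 5 days, then fixed and stained in one step (final 0.05% Triton X-100, 1% formaldehyde, 1 ug/ml Hoechst) and imaged at 4×. Doses were one drug alone or a fixed anchor-drug dose plus five library-drug doses (not always all listed) in √10 steps, and values are duplicate-plate medians.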

Selisistat + Olaparib = compound: C1CC(C2=C(C1)C3=C(N2)C=CC(=C3)Cl)C(=O)N [Selisistat] + O=C(c1cc(Cc2n[nH]c(=O)c3ccccc23)ccc1F)N1CCN(C(=O)C2CC2)CC1 [Olaparib] (partner 8 µM)
Summary of the method: as §1

Serdemetan + Foretinib = compound: c1ccc2c(CCNc3ccc(Nc4ccncc4)cc3)c[nH]c2c1 [Serdemetan] + COc1cc2c(Oc3ccc(NC(=O)C4(C(=O)Nc5ccc(F)cc5)CC4)cc3F)ccnc2cc1OCCCN1CCOCC1 [Foretinib] (partner 0.25 µM)
Summary of the method: as §1

Selisistat + AZD7762 = compound: C1CC(C2=C(C1)C3=C(N2)C=CC(=C3)Cl)C(=O)N [Selisistat] + NC(=O)Nc1cc(-c2cccc(F)c2)sc1C(=O)N[C@H]1CCCNC1 [AZD7762] (partner 0.2 µM)
Summary of the method: as §1

| Cell Line | relative viability (Serdemetan + Crizotinib; first compound 0.04 µM) | relative viability (Serdemetan + Crizotinib; first compound 0.1265 µM) | relative viability (Serdemetan + Crizotinib; first compound 0.4 µM) | relative viability (Serdemetan + Crizotinib; first compound 1.265 µM) | relative viability (Serdemetan + Crizotinib; first compound 4 µM) | relative viability (Selisistat + Olaparib; first compound 0.4 µM) | relative viability (Selisistat + Olaparib; first compound 1.265 µM) | relative viability (Selisistat + Olaparib; first compound 4 µM) | relative viability (Selisistat + Olaparib; first compound 12.65 µM) | relative viability (Selisistat + Olaparib; first compound 40 µM) | relative viability (Serdemetan + Foretinib; first compound 0.04 µM) | relative viability (Serdemetan + Foretinib; first compound 0.1265 µM) | relative viability (Serdemetan + Foretinib; first compound 0.4 µM) | relative viability (Serdemetan + Foretinib; first compound 1.265 µM) | relative viability (Serdemetan + Foretinib; first compound 4 µM) | relative viability (Selisistat + AZD7762; first compound 0.4 µM) | relative viability (Selisistat + AZD7762; first compound 1.265 µM) | relative viability (Selisistat + AZD7762; first compound 4 µM) | relative viability (Selisistat + AZD7762; first compound 12.65 µM) | relative viability (Selisistat + AZD7762; first compound 40 µM) |
| --- | --- | --- | --- | --- | --- | --- | --- | --- | --- | --- | --- | --- | --- | --- | --- | --- | --- | --- | --- | --- |
| 201T | 1.05 | 1.03 | 0.948 | 0.927 | 0.879 | 0.85 | 0.841 | 0.827 | 0.823 | 0.843 | 1.14 | 1.13 | 1.02 | 0.636 | 0.73 | 0.644 | 0.623 | 0.7 | 0.602 | 0.659 |
| A-427 | 0.919 | 0.789 | 0.662 | 0.287 | 0.404 | 0.853 | 0.779 | – | 0.829 | 0.692 | 1.01 | 0.933 | 1.1 | 0.778 | 0.469 | 0.742 | 0.785 | – | 0.725 | 0.757 |
| ABC-1 | 0.926 | 1 | 0.817 | 0.69 | 0.475 | 0.715 | 0.686 | – | 0.876 | 0.69 | 0.855 | 1.08 | 0.766 | 0.604 | 0.418 | 0.791 | 0.778 | – | 0.829 | 1.08 |
| BEN | 0.826 | 0.864 | 0.944 | 0.759 | 0.64 | 1.08 | 1.03 | 1.06 | 1.06 | 1.04 | 0.631 | 0.682 | 0.794 | – | 0.609 | 0.74 | 0.535 | 0.471 | 0.71 | 0.649 |
| CAL-12T | 0.63 | 0.705 | 0.608 | – | 0.74 | 0.765 | 0.675 | 0.689 | 0.782 | 0.769 | 1.07 | 1.15 | 1.04 | 1.03 | 0.969 | 0.589 | 0.626 | 0.566 | 0.605 | 0.732 |
| ChaGo-K-1 | – | 1.11 | 1.11 | 0.714 | 0.43 | 0.439 | 0.409 | 0.438 | 0.351 | 0.388 | 0.9 | 0.703 | 0.566 | 0.335 | 0.296 | 0.787 | 0.828 | 0.883 | 0.838 | 0.8 |
| EKVX | 0.899 | 0.894 | 0.913 | 0.897 | 0.98 | 0.872 | 0.886 | 0.752 | 0.869 | 0.818 | 1 | 0.82 | 0.424 | – | 0.858 | 0.682 | 0.732 | 0.705 | 0.699 | 0.802 |
| EMC-BAC-2 | 0.727 | 0.778 | 0.694 | 0.5 | 0.39 | 0.577 | 0.504 | 0.676 | 0.371 | 0.405 | 0.969 | 1.02 | 1.04 | 0.809 | 0.676 | 1.08 | 1.11 | 1.07 | 0.661 | 0.598 |
